Measurements published in the supplement of paper PMC11208160.

Test: recombinant barcode read abundance after kanamycin selection (control-corrected) (log10(CPM+1)); higher = more efficient recombination; sequences stand for … in AGTGCAGAGAAAATCGGCCAGTTTTCTCTGCCTGCAGTCCGCATGCCGT…AGATTTATGCAGCGGACTGCCTTTCTCCCAAAGTGATAAACCGGACAGTATCATGGACCGGTTTTCCCGGTAATCCGTATTTGCAAGGTTGGTTTCACT; site = the 11-nt target
How it was run: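 This pooled E. coli screen matched targets with IS621 bridge RNA target-binding loops. Plating was done in duplicate on chloramphenicol/ampicillin LB agar as a control and on chloramphenicol/ampicillin/kanamycin plus 0.1 mM IPTG. Recombination efficiency reflects barcode counts at recombinant junctions as counts per million, averaged and control-corrected. The figures are log10(CPM+1).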
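Also: IS621 recombinase and bridge RNA in Escherichia coli cells.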

In order of falling “recombinant barcode read abundance (log10)” value:
1. CGAGTCCCTTGGGTTCTAACCTGTTGCAG (site CGAGTCCCTCT)  2.15
2. CGACTGCCTTGGGTTCTAACCTGTTGCGT (site CGACTGCCTAC)  2.09
3. CGAGTGTCTTGGGTTCTAACCTGTTGCTA (site CGAGTGTCTTA)  1.96
4. CGAGGGTCTTGGGTTCTAACCTGTTGCCT (site CGAGGGTCTAG)  1.87
5. CGAGGGTCTTGGGTTCTAACCTGTTGCTT (site CGAGGGTCTAA)  1.82
6. CGATCCACTTGGGTTCTAACCTGTTGCCT (site GGATCCACTAG)  1.56
7. CGATGACCTTGGGTTCTAACCTGTTGCAT (site CGATGACCTAT)  1.48
8. CGAAGCTCTTGGGTTCTAACCTGTTGCCT (site CGAAGCTCTAG)  1.44
9. CGAAAATCTTGGGTTCTAACCTGTTGCCT (site CGCAAATCTAG)  1.33
10. CGAGGTTCTTGGGTTCTAACCTGTTGCCT (site CGAGGTTCTAG)  1.06
11. CGAATCCCTTGGGTTCTAACCTGTTGCCT (site CGAATCCCTAG)  0.809
12. CGATTAGCTTGGGTTCTAACCTGTTGCCG (site CGATTAGCTCG)  0.536
13. CGACTGCCTTGGGTTCTAACCTGTTGCGT (site CGAATGTCTAC)  0.527
14. CGAGCAGCTTGGGTTCTAACCTGTTGCCT (site CGGGCAGCTAG)  0.519
15. CGCAGCTCTTGGGTTCTAACCTGTTGCCT (site CGTAGCTCTAG)  0.511
16. CGCAGCCCTTGGGTTCTAACCTGTTGCAT (site CGCAGCCCTAT)  0.462
17. CGCCGCCCTTGGGTTCTAACCTGTTGCCT (site AGCCGCCCTAT)  0.447
18. CGATGGCCTTGGGTTCTAACCTGTTGCAT (site CGATGGCCTAT)  0.433
19. CGACCGACTTGGGTTCTAACCTGTTGCAG (site CGACCGACTCT)  0.42
20. CGAGGGTCTTGGGTTCTAACCTGTTGCTT (site GGAGGGTCTAA)  0.413
21. CGACATCCTTGGGTTCTAACCTGTTGCCT (site CGAGATCCTAG)  0.409
22. CGAGCAGCTTGGGTTCTAACCTGTTGCCT (site CGAGCAGCTAG)  0.395
23. CGATGGCCTTGGGTTCTAACCTGTTGCAT (site CGATGACCTAT)  0.388
24. CGCCCTCCTTGGGTTCTAACCTGTTGCAT (site CGCCCTCCTAT)  0.362
25. CGCCTCTCTTGGGTTCTAACCTGTTGCCT (site CGCCTCGCTAG)  0.307
26. CGATCTCCTTGGGTTCTAACCTGTTGCAC (site CGATCTCCTGT)  0.303
27. CGAGGGTCTTGGGTTCTAACCTGTTGCCT (site CGAGGGCCTAG)  0.279
28. CGCGCGGCTTGGGTTCTAACCTGTTGCCT (site CGCGGGGCTAG)  0.266
29. CGCGCGGCTTGGGTTCTAACCTGTTGCCT (site CGCGCGGCTAG)  0.251
30. CGATTATCTTGGGTTCTAACCTGTTGCCT (site CGATTAACTAG)  0.25
31. CCTTTGTCTTGGGTTCTAACCTGTTGCTT (site CCTTTGTCTAA)  0.243
32. CGACTGACTTGGGTTCTAACCTGTTGCCT (site CGACTGACTAG)  0.229
33. CGACGTACTTGGGTTCTAACCTGTTGCCT (site CGCCGTACTAG)  0.226
34. CGAAGCTCTTGGGTTCTAACCTGTTGCCT (site CGTAGCTCTAG)  0.223
35. CGACATCCTTGGGTTCTAACCTGTTGCCT (site CGACATCCTAG)  0.214
36. CGAGGTTCTTGGGTTCTAACCTGTTGCCT (site CGCGGTTCTAG)  0.212
37. CGAAGCTCTTGGGTTCTAACCTGTTGCCT (site CGCAGCTCTAG)  0.211
38. CGCCTCTCTTGGGTTCTAACCTGTTGCCT (site CGCCTCCCTAG)  0.211
39. CGAAAATCTTGGGTTCTAACCTGTTGCCT (site CGGAAATCTAG)  0.18
40. CGCCGCCCTTGGGTTCTAACCTGTTGCCT (site CGCCGCCCTAG)  0.18
41. CGATCATCTTGGGTTCTAACCTGTTGCCT (site CGGTCATCTAG)  0.173
42. CGAGGGTCTTGGGTTCTAACCTGTTGCTT (site AGAGGGTCTAA)  0.172
43. CGCGAATCTTGGGTTCTAACCTGTTGCTT (site CGCGGGTCTAA)  0.168
44. CGATTATCTTGGGTTCTAACCTGTTGCCT (site CGATTACCTAG)  0.162
45. CGACCGACTTGGGTTCTAACCTGTTGCAG (site CGATCGACTCT)  0.158
46. CCTTTGTCTTGGGTTCTAACCTGTTGCTT (site CCTTTGACTAA)  0.155
47. CGAGCAGCTTGGGTTCTAACCTGTTGCCT (site CGCGCAGCTAG)  0.152
48. CGACGTACTTGGGTTCTAACCTGTTGCCT (site CGACGTACTAG)  0.151
49. CGAGGGTCTTGGGTTCTAACCTGTTGCTT (site TGAGGGTCTAA)  0.147
50. CGAGTCCCTTGGGTTCTAACCTGTTGCAG (site ATCTAAACTAG)  0.137
51. CGAAAATCTTGGGTTCTAACCTGTTGCCT (site CGTAAATCTAG)  0.128
52. CGAATCCCTTGGGTTCTAACCTGTTGCCT (site CGAATCTCTAG)  0.117
53. CGCCCTCCTTGGGTTCTAACCTGTTGCAT (site CGCCGTCCTAT)  0.117
54. CGAAGCTCTTGGGTTCTAACCTGTTGCCT (site CGGAGCTCTAG)  0.108
55. CGAATCCCTTGGGTTCTAACCTGTTGCCT (site CGAATCACTAG)  0.107
56. CGATGACCTTGGGTTCTAACCTGTTGCAT (site CGATGGCCTAT)  0.107
57. CGATCATCTTGGGTTCTAACCTGTTGCCT (site CGATCATCTAG)  0.103
58. CGAGTGTCTTGGGTTCTAACCTGTTGCTA (site GATCACCCTAT)  0.0951
59. CGCCTCTCTTGGGTTCTAACCTGTTGCCT (site CGCCTCACTAG)  0.0921
60. CGAGGGTCTTGGGTTCTAACCTGTTGCCT (site CGAGGGGCTAG)  0.0907
61. CGATCCACTTGGGTTCTAACCTGTTGCCT (site CGATCCACTAG)  0.0891
62. CGCCCTCCTTGGGTTCTAACCTGTTGCAT (site CGCCATCCTAT)  0.0837
63. CGATCATCTTGGGTTCTAACCTGTTGCCT (site CGTTCATCTAG)  0.0823
64. CGATTATCTTGGGTTCTAACCTGTTGCCT (site CGATTAGCTAG)  0.0752
65. CGCCTCTCTTGGGTTCTAACCTGTTGCCT (site CGCCTCTCTAG)  0.0707
66. CGATCCACTTGGGTTCTAACCTGTTGCCT (site TGATCCACTAG)  0.0673
67. CGAAAATCTTGGGTTCTAACCTGTTGCCT (site CGAAAATCTAG)  0.0664
68. CGCAGCCCTTGGGTTCTAACCTGTTGCAT (site CGGAGCCCTAT)  0.0663
69. CGACGTACTTGGGTTCTAACCTGTTGCCT (site CGGCGTACTAG)  0.0649
70. CGCAAGCCTTGGGTTCTAACCTGTTGCAT (site CGCAAGCCTAT)  0.0608
71. CGAGGGTCTTGGGTTCTAACCTGTTGCCT (site CGAGGGACTAG)  0.0535
72. CGATTATCTTGGGTTCTAACCTGTTGCCT (site CGATTATCTAG)  0.0534
73. CGACTGACTTGGGTTCTAACCTGTTGCCT (site CGTCTGACTTG)  0.0517
74. CGATCATCTTGGGTTCTAACCTGTTGCCT (site CGCTCATCTAG)  0.0503
75. CGCAGCTCTTGGGTTCTAACCTGTTGCCT (site CGGAGCTCTAG)  0.0445
76. CGATCTCCTTGGGTTCTAACCTGTTGCAC (site ACTCACTCTAG)  0.0376
77. CGCGAATCTTGGGTTCTAACCTGTTGCTT (site CGCGAATCTAA)  0.0373
78. CGAATCCCTTGGGTTCTAACCTGTTGCCT (site CGAATCGCTAG)  0.0332
79. CGCCCTCCTTGGGTTCTAACCTGTTGCAT (site CGCCTTCCTAT)  0.0322
80. CGCAGCTCTTGGGTTCTAACCTGTTGCCT (site CGCAGCTCTAG)  0.0301
81. CGATCCACTTGGGTTCTAACCTGTTGCCT (site AGATCCACTAG)  0.0256
82. CGATTAGCTTGGGTTCTAACCTGTTGCCG (site ATTCACACTAC)  0.0236
83. CGAGCAGCTTGGGTTCTAACCTGTTGCCT (site CGTGCAGCTAG)  0.0197
84. CGCAGCTCTTGGGTTCTAACCTGTTGCCT (site CGAAGCTCTAG)  0.0165
85. CGACGTACTTGGGTTCTAACCTGTTGCCT (site CGTCGTACTAG)  0
86. CGCAAGCCTTGGGTTCTAACCTGTTGCAT (site CGTAAGCCTAT)  0
